Test system: C. diff. strain VPI 10463 (ATCC-43255) infection
Assay: Murine model of Clostridium difficile-associated disease: acute model
Assay type: in vivo, C57BL6 female mice
Experimental: Efficacy Evaluation in a Murine Model of Clostridium difficile-Associated Disease: Acute Model
The efficacy of compounds in suppressing C. diff infection was assessed in C57BL6 female mice. Mice were made vulnerable to C. diff. infection by administration of a cocktail of antibiotics (1% glucose, kanamycin (0.5 mg/mL), gentamicin (44 μg/mL), colistin (1062.5 U/mL), metronidazole (269 μg/mL), ciprofloxacin (156 μg/mL), ampicillin (100 μg/mL) and vancomycin (56 μg/mL)) in drinking water for a period of 9 days. 3 days prior to C. diff. infection, mice received a single dose of clindamycin (10 mg/kg) in a volume of 0.5 mL by oral gavage. After this antibiotic pre-treatment, mice received a challenge of approximately 4.5 log 10 viable spores of strain VPI 10463 (ATCC-43255) administered by oral gavage. Test compounds (bile acid) and placebo were administered in the chow or via oral gavage bid from day −2 through day 4 or 10 or 11. Gavage medium was aqueous, PBS-buffered 0.5% hydroxypropyl methylcellulose (HPMC) suspension. Efficacy of test articles was assessed by enumeration of survival of test animals over 12/15 days following C. diff, challenge and by comparison of mortality, disease severity scores and assessment of body weight against placebo treatment.
Results studies 1, 2 and 3 (using compound Example 1, dosed with 100 mg/kg daily dose via food or via gavage bid): […]

[1] = Study 1, 0.1% in chow, Day −2 to Day 10
[2] = Study 1, 0.1% in chow, Day −2 to Day 10, n 10
[3] = Study 2, 0.1% in chow, Day −2 to Day 10
[4] = Study 2, 0.1% in chow, Day −2 to Day 10, n 10
[5] = Study 3, 0.1% in chow, Day −2 to Day 4
[6] = Study 3, 0.1% in chow, Day −2 to Day 4, n 10
[7] = Study 3, 0.1% in chow, Day −2 to Day 10
[8] = Study 3, as gavage, Day −2 to Day 4
[9] = Study 3, as gavage, Day −2 to Day 4, n 10
[10] = Study 3, as gavage, Day −2 to Day 10

## C[C@H](CCC(=O)O)[C@H]1CC[C@H]2[C@@H]3CC[C@@H]4C[C@@H](O)CC[C@]4(C)[C@H]3CC[C@]12C [Example 1, Isolithocholic Acid]
[1]
  % Death: 0%
  % mouse days with total clinical score >0: 30%
  % mouse days with total clinical score >2: 0%
  Body weight day 12: 19.0
[2]
  Survived: 10
  Total Deaths: 0
[3]
  % Death: 0%
  % mouse days with total clinical score >0: 65%
  % mouse days with total clinical score >2: 0%
  Body weight day 12: 20.0
[4]
  Survived: 10
  Total Deaths: 0
[5]
  % Death: 20%
  Body weight day 12: 18.1
[6]
  Survived: 8
  Total Deaths: 2
[7]
  % mouse days with total clinical score >0: 72%
  % mouse days with total clinical score >2: 15%
[8]
  % Death: 0%
  Body weight day 12: 15.5 g
[9]
  Survived: 10
  Total Deaths: 0
[10]
  % mouse days with total clinical score >0: 30%
  % mouse days with total clinical score >2: 2%
First study (vehicle group 40% died)
  animals in the treatment groups survived: 100%
Second study (vehicle group 30% died)
  animals in the treatment groups survived: 100%
Third study (vehicle group 80% died)
  animals in the treatment groups survived: 80%
